PubChem BioAssay (NCI)
Values joined by “and” are separate entries in the source; they are usually repeats but may differ in a detail not shown here. Identical values can stand only once.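 The compound was tested at five concentrations on cells cultured in 96-well plates, with a 48-hour exposure period. GI50 marks 50% less growth. The concentration for full growth arrest is given as TGI.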

Legend:
Assay in all cases: growth of human tumour cells (NCI), 48 h
[1] = system: A549 NSCLC
[2] = system: HCT-15 colon
[3] = system: MOLT-4 leukemia
[4] = system: OVCAR-3 ovarian
[5] = system: OVCAR-4 ovarian
[6] = system: PC-3 prostate
[7] = system: SK-MEL-28 melanoma
[8] = system: U251 CNS
[9] = system: M14 melanoma
[10] = system: UO-31 renal

SMILES	TGI [1]	TGI [2]	TGI [3]	TGI [4]	TGI [5]	TGI [6]	TGI [7]	TGI [8]	TGI [9]	TGI [10]	GI50 [1]	GI50 [2]	GI50 [3]	GI50 [4]	GI50 [5]	GI50 [7]	GI50 [8]	GI50 [10]	GI50 [9]	GI50 [6]
O=C(NCCCCCCO)c1cccc2cc3ccccc3nc12	31.5 µM	48.6 µM	58.5 µM	36.5 µM	66.2 µM	31.9 µM	42.5 µM	> 100 µM												
O=[N+]([O-])c1cc(F)ccc1Sc1ccccc1	> 10 µM	> 10 µM	> 10 µM	> 10 µM	> 10 µM	> 10 µM	> 10 µM	> 10 µM	> 10 µM											
NNC(=O)Cn1ccnn1	> 100 µM	> 100 µM	> 100 µM			> 100 µM	> 100 µM	> 100 µM	> 100 µM											
O=c1c2cc(Br)ccc2ncn1COCc1ccccc1	> 100 µM	> 100 µM	> 100 µM	> 100 µM	> 100 µM		> 100 µM	> 100 µM	> 100 µM	> 100 µM										
CCC1(OC(=O)CN)C(=O)OCc2c1cc1n(c2=O)Cc2cc3cc4c(cc3nc2-1)OCO4 (stereo unspecified)	1.2 µM and 0.347 µM	26.8 µM and 10.2 µM	0.0113 µM	1.05 µM and 0.554 µM			13.3 µM and 11.8 µM	0.0195 µM		0.151 µM and 0.4 µM	< 0.01 µM	0.126 µM and 0.0483 µM	< 0.01 µM	0.196 µM and 0.131 µM	0.216 µM and 0.0574 µM	0.195 µM and 0.294 µM	< 0.01 µM	< 0.01 µM and 0.0614 µM		
COC(=O)C1CC23C=CCN4CC(C2C)C2(c5ccccc5NC12)C43 (stereo unspecified)	> 100 µM	> 100 µM	> 100 µM	> 100 µM	> 100 µM	> 100 µM	> 100 µM	> 100 µM	> 100 µM											
C[PH+](c1nc2ccccc2nc1[PH+](C)C(C)(C)C)C(C)(C)C.C[PH+](c1nc2ccccc2nc1[PH+](C)C(C)(C)C)C(C)(C)C.[Au+].[Cl-] (stereo unspecified)					0.77 µM	0.144 µM	1.5 µM		0.31 µM						0.0349 µM	0.0538 µM			0.0386 µM	0.0286 µM
CCOC(=O)c1c(N)sc2c1C(C(=O)OCC)CCC2 (stereo unspecified)	> 100 µM	> 100 µM	> 100 µM			> 100 µM	> 100 µM	> 100 µM	> 100 µM	> 100 µM										
C=CCCCCn1c2ccccc2c2c(C)c3cnccc3c(C)c21	32.2 µM	27.5 µM	9.47 µM	19.9 µM	21.8 µM		40.8 µM	40.6 µM		23.8 µM										
COc1cc(CNC(=S)CCCCCCCCCCC(C)C)ccc1O	> 100 µM	> 100 µM	> 100 µM		> 100 µM		> 100 µM	> 100 µM	> 100 µM	95.7 µM										
C[C@]12CCC(=O)C=C1CC[C@@H]1[C@@H]2[C@@H](O)C[C@@]2(C)[C@H]1CC[C@]2(O)C(=O)COC(=O)CCC1CCCC1	> 100 µM	> 100 µM	> 100 µM	> 100 µM			> 100 µM	> 100 µM		> 100 µM										
C=C(C)[C@@H]1CC[C@]2(CO)CC[C@]3(C)[C@H](CC[C@@H]4[C@@](C)(CCCN)[C@H](C(=C)C)CC[C@]43C)[C@@H]12	3.43 µM			2.96 µM		3.09 µM	3.14 µM			2.58 µM	1.73 µM			1.59 µM		1.75 µM		1.31 µM		1.55 µM
COc1cc2c(c(OC)c1)C(=O)O[C@H](C)CCCC/C=C/C2	> 100 µM	> 66.9 µM	> 31.9 µM	28 µM	> 31.4 µM		> 34.1 µM	30.5 µM	> 32.2 µM	> 30.8 µM										
CCOC(=O)CCC(NC(=O)OCc1ccccc1)C(=O)NC(CCC(=O)OCC)C(=O)NC(CCC(=O)OCC)C(=O)NNC(=O)OC(C)(C)C (stereo unspecified)	> 100 µM	> 100 µM	> 100 µM			> 100 µM	> 100 µM	> 100 µM	> 100 µM	> 100 µM										
N#C/C(C(=O)Nc1ccccc1)=C(/N)N1CCCCC1	> 100 µM	> 100 µM	> 100 µM	> 100 µM		> 100 µM	> 100 µM	> 100 µM	> 100 µM	> 100 µM										
Cn1c(=O)n(CC2CS2)c2ccccc21 (stereo unspecified)	> 100 µM	> 100 µM	> 100 µM	> 100 µM	> 100 µM		> 100 µM		> 100 µM	> 100 µM										
O=P(O)(O)C=C=C1CCCCC1	> 100 µM	> 100 µM		> 100 µM	> 100 µM	> 100 µM	> 100 µM	> 100 µM	> 100 µM											
Cc1cc2nc(-c3c(N)ncc(C#N)c3-c3ccc(Cl)cc3)[nH]c2cc1C	24.9 µM	> 100 µM	> 100 µM	76 µM	25.4 µM	39.3 µM	40.2 µM	21.4 µM			4.17 µM	30.6 µM	> 100 µM	13.9 µM	4.4 µM	5.8 µM	5.48 µM			6.59 µM
CCN(CC)/[N+]([O-])=N/O	> 100 µM	> 100 µM	> 100 µM	> 100 µM			> 100 µM		> 100 µM	> 100 µM										
